Measured values: patent US6355799B1, “Substituted benzene compounds, process for their preparation, and herbicidal and defoliant compositions containing them” (ISK Americas Incorporated, priority 1997, dated 2002)

How the values were obtained:
Type in all cases: in vivo
[1] = tested on: green foxtail (Setaria viridis, SETVI); assay: Post-emerge test, greenhouse herbicide activity screening; settings: for phytotoxicity rating SETVI: rating scale 0-100
Outline: (§1)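 Applied at 15–1000 g ai/ha from acetone in 187 l/ha spray volume. Post-emergence applications included 0.25% v/v non-ionic surfactant and reached plants sown 8–21 days before. Pre-emergence applications were incorporated by surface watering. Efficacy or crop damage was rated on a 0–100 scale after 14 days.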

[2] = tested on: barnyardgrass (Echinochloa crus-galli, ECHCG); assay: as above; settings: for phytotoxicity rating ECHCG: rating scale 0-100
Outline: as §1

[3] = tested on: sicklepod (Cassia obtusifolia, CASOB); assay: as above; settings: for phytotoxicity rating CASOB: rating scale 0-100
Outline: as §1

[4] = tested on: ivyleaf morningglory (Ipomoea hederacea, IPOHE); assay: as above; settings: for phytotoxicity rating IPOHE: rating scale 0-100
Outline: as §1

[5] = tested on: velvetleaf (Abutilon theophrasti, ABUTH); assay: as above; settings: for phytotoxicity rating ABUTH: rating scale 0-100
Outline: as §1

[6] = tested on: redroot pigweed (Amaranthus retroflexus, AMARE); assay: as above; settings: for phytotoxicity rating AMARE: rating scale 0-100
Outline: as §1

[7] = tested on: johnsongrass (Sorghum halepense, SORHA); assay: as above; settings: for phytotoxicity rating SORHA: rating scale 0-100
Outline: as §1

[8] = tested on: large crabgrass (Digitaria sanguinalis, DIGSA); assay: as above; settings: for phytotoxicity rating DIGSA: rating scale 0-100
Outline: as §1

[9] = tested on: lambsquarters (Chenopodium album, CHEAL); assay: as above; settings: for phytotoxicity rating CHEAL: rating scale 0-100
Outline: as §1

[10] = tested on: green foxtail (Setaria viridis, SETVI); assay: Pre-emerge test, greenhouse herbicide activity screening; settings: for Pre-emerge herbicidal activity, phytotoxicity rating SETVI: rating scale 0-100, 14 days after application; for Pre-emerge Herbicidal Activity, phytotoxicity rating (0-100), SETVI: rated 14 days after application, 0 = no damage, 100 = complete death
Outline: (§2)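 Visual ratings on a 0-100 scale (0 no damage, 100 all plants dead) were taken at 14 days after treatment. Rates of 15-1000 g ai/ha in acetone, 187 l/ha, were sprayed onto soil one day after planting (pre-emerge) or onto 2-3 leaf plants with 0.25% v/v surfactant (post-emerge).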

[11] = tested on: barnyardgrass (Echinochloa crus-galli, ECHCG); assay: as above; settings: for Pre-emerge herbicidal activity, phytotoxicity rating ECHCG: rating scale 0-100, 14 days after application; for Pre-emerge Herbicidal Activity, phytotoxicity rating (0-100), ECHCG: rated 14 days after application, 0 = no damage, 100 = complete death
Outline: as §2

[12] = tested on: sicklepod (Cassia obtusifolia, CASOB); assay: as above; settings: for Pre-emerge herbicidal activity, phytotoxicity rating CASOB: rating scale 0-100, 14 days after application; for Pre-emerge Herbicidal Activity, phytotoxicity rating (0-100), CASOB: rated 14 days after application, 0 = no damage, 100 = complete death
Outline: as §2

[13] = tested on: ivyleaf morningglory (Ipomoea hederacea, IPOHE); assay: as above; settings: for Pre-emerge herbicidal activity, phytotoxicity rating IPOHE: rating scale 0-100, 14 days after application; for Pre-emerge Herbicidal Activity, phytotoxicity rating (0-100), IPOHE: rated 14 days after application, 0 = no damage, 100 = complete death
Outline: as §2

[14] = tested on: velvetleaf (Abutilon theophrasti, ABUTH); assay: as above; settings: for Pre-emerge herbicidal activity, phytotoxicity rating ABUTH: rating scale 0-100, 14 days after application; for Pre-emerge Herbicidal Activity, phytotoxicity rating (0-100), ABUTH: rated 14 days after application, 0 = no damage, 100 = complete death
Outline: as §2

[15] = tested on: johnsongrass (Sorghum halepense, SORHA); assay: as above; settings: for Pre-emerge herbicidal activity, phytotoxicity rating SORHA: rating scale 0-100, 14 days after application; for Pre-emerge Herbicidal Activity, phytotoxicity rating (0-100), SORHA: rated 14 days after application, 0 = no damage, 100 = complete death
Outline: as §2

[16] = tested on: large crabgrass (Digitaria sanguinalis, DIGSA); assay: as above; settings: for Pre-emerge herbicidal activity, phytotoxicity rating DIGSA: rating scale 0-100, 14 days after application; for Pre-emerge Herbicidal Activity, phytotoxicity rating (0-100), DIGSA: rated 14 days after application, 0 = no damage, 100 = complete death
Outline: as §2

[17] = tested on: common ragweed (Ambrosia artemisizfolia L., AMBEL); assay: as above; settings: for Pre-emerge herbicidal activity, phytotoxicity rating AMBEL: rating scale 0-100, 14 days after application; for Pre-emerge Herbicidal Activity, phytotoxicity rating (0-100), AMBEL: rated 14 days after application, 0 = no damage, 100 = complete death
Outline: as §2

[18] = tested on: lambsquarters (Chenopodium album, CHEAL); assay: as above; settings: for Pre-emerge herbicidal activity, phytotoxicity rating CHEAL: rating scale 0-100, 14 days after application; for Pre-emerge Herbicidal Activity, phytotoxicity rating (0-100), CHEAL: rated 14 days after application, 0 = no damage, 100 = complete death
Outline: as §2

[19] = tested on: redroot pigweed (Amaranthus retroflexus, AMARE); assay: as above; settings: for Pre-emerge herbicidal activity, phytotoxicity rating AMARE: rating scale 0-100, 14 days after application; for Pre-emerge Herbicidal Activity, phytotoxicity rating (0-100), AMARE: rated 14 days after application, 0 = no damage, 100 = complete death
Outline: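 Rating: 0–100 visual injury, 14 DAA. Application: acetone, 187 l/ha, 15–1000 g ai/ha, flat-fan track sprayer with nozzle 40–45 cm above soil or canopy. Post-emerge runs used 0.25% v/v surfactant on 2–3 leaf plants.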

[20] = Rate 250 g ai/ha, rating scale 0-100 (0 no damage, 100 complete death), 14 days after application
[21] = post-emerge, 63 g ai/ha, 14 days after application
[22] = post-emerge, 250 g ai/ha, 14 days after application

O=C(Nc1cc(Cl)ccc1N1C(=O)c2ccccc2C1=O)c1ccc2ccccc2c1 [Compound 13-5, N-[4-chloro-2-(2-naphthoylamino)phenyl]phthalimide]
Post-emerge Herbicidal Activity, phytotoxicity rating SETVI [1, 20]: 10
pest or weed control at 63 g/ha ([1]; Setaria viridis, post-emergence, 336 h, post-emerge, 63 g ai/ha, phytotoxicity rating 0-100 at 14 days after application, read-out: Post-emerge Herbicidal Activity SETVI): 0%
pest or weed control at 63 g/ha ([2]; Echinochloa crus-galli, post-emergence, 336 h, post-emerge, 63 g ai/ha, phytotoxicity rating 0-100 at 14 days after application, read-out: Post-emerge Herbicidal Activity ECHCG): 0%
Post-emerge Herbicidal Activity, phytotoxicity rating ECHCG [2, 20]: 0
Post-emerge Herbicidal Activity, phytotoxicity rating CASOB [3, 20]: 30
pest or weed control at 63 g/ha ([3]; Senna obtusifolia, post-emergence, 336 h, post-emerge, 63 g ai/ha, phytotoxicity rating 0-100 at 14 days after application, read-out: Post-emerge Herbicidal Activity CASOB): 40%
pest or weed control at 63 g/ha ([4]; Ipomoea, post-emergence, 336 h, post-emerge, 63 g ai/ha, phytotoxicity rating 0-100 at 14 days after application, read-out: Post-emerge Herbicidal Activity IPOHE): 50%
Post-emerge Herbicidal Activity, phytotoxicity rating IPOHE [4, 20]: 60
pest or weed control at 63 g/ha ([5]; Abutilon theophrasti, post-emergence, 336 h, post-emerge, 63 g ai/ha, phytotoxicity rating 0-100 at 14 days after application, read-out: Post-emerge Herbicidal Activity ABUTH): 70%
Post-emerge Herbicidal Activity, phytotoxicity rating ABUTH [5, 20]: 70
pest or weed control at 63 g/ha ([6]; Amaranthus retroflexus, post-emergence, 336 h, post-emerge, 63 g ai/ha, phytotoxicity rating 0-100 at 14 days after application, read-out: Post-emerge Herbicidal Activity AMARE): 70%
Post-emerge Herbicidal Activity, phytotoxicity rating AMARE [6, 20]: 75
Post-emerge Herbicidal Activity, phytotoxicity rating SORHA [7, 20]: 0
pest or weed control at 63 g/ha ([7]; Sorghum halepense, post-emergence, 336 h, post-emerge, 63 g ai/ha, phytotoxicity rating 0-100 at 14 days after application, read-out: Post-emerge Herbicidal Activity SORHA): 0%
pest or weed control at 63 g/ha ([8]; Digitaria sanguinalis, post-emergence, 336 h, post-emerge, 63 g ai/ha, phytotoxicity rating 0-100 at 14 days after application, read-out: Post-emerge Herbicidal Activity DIGSA): 0%
Post-emerge Herbicidal Activity, phytotoxicity rating DIGSA [8, 20]: 20
pest or weed control at 63 g/ha ([9]; Chenopodium album, post-emergence, 336 h, post-emerge, 63 g ai/ha, phytotoxicity rating 0-100 at 14 days after application, read-out: Post-emerge Herbicidal Activity CHEAL): 95%
Post-emerge Herbicidal Activity, phytotoxicity rating CHEAL [9, 20]: 90
Pre-emerge herbicidal activity, phytotoxicity rating SETVI ([10]; 63 g ai/ha): 30
Pre-emerge herbicidal activity, phytotoxicity rating SETVI ([10]; 250 g ai/ha): 50
Pre-emerge herbicidal activity, phytotoxicity rating ECHCG ([11]; 63 g ai/ha): 0
Pre-emerge herbicidal activity, phytotoxicity rating ECHCG ([11]; 250 g ai/ha): 0
Pre-emerge herbicidal activity, phytotoxicity rating CASOB ([12]; 63 g ai/ha): 0
Pre-emerge herbicidal activity, phytotoxicity rating CASOB ([12]; 250 g ai/ha): 0
Pre-emerge herbicidal activity, phytotoxicity rating IPOHE ([13]; 63 g ai/ha): 0
Pre-emerge herbicidal activity, phytotoxicity rating IPOHE ([13]; 250 g ai/ha): 0
Pre-emerge herbicidal activity, phytotoxicity rating ABUTH ([14]; 63 g ai/ha): 0
Pre-emerge herbicidal activity, phytotoxicity rating ABUTH ([14]; 250 g ai/ha): 0
Pre-emerge herbicidal activity, phytotoxicity rating SORHA ([15]; 63 g ai/ha): 0
Pre-emerge herbicidal activity, phytotoxicity rating SORHA ([15]; 250 g ai/ha): 30
Pre-emerge herbicidal activity, phytotoxicity rating DIGSA ([16]; 63 g ai/ha): 0
Pre-emerge herbicidal activity, phytotoxicity rating DIGSA ([16]; 250 g ai/ha): 10
Pre-emerge herbicidal activity, phytotoxicity rating AMBEL ([17]; 63 g ai/ha): 0
Pre-emerge herbicidal activity, phytotoxicity rating AMBEL ([17]; 250 g ai/ha): 0
Pre-emerge herbicidal activity, phytotoxicity rating CHEAL ([18]; 63 g ai/ha): 20
Pre-emerge herbicidal activity, phytotoxicity rating CHEAL ([18]; 250 g ai/ha): 50
Pre-emerge herbicidal activity, phytotoxicity rating AMARE ([19]; 63 g ai/ha): 30
Pre-emerge herbicidal activity, phytotoxicity rating AMARE ([19]; 250 g ai/ha): 95

Cc1c(Cl)cc(F)c(-n2c(=O)cc(C(F)(F)F)n(C)c2=O)c1NC(=O)c1ccc2ccccc2c1 [Compound 2-122, 3-[4-chloro-6-fluoro3-methyl-2-(2-naphthoyl)aminophenyl]-1-methyl-6-trifluoromethyl-2,4(1H, 3H)-pyrimidinedione]
phytotoxicity rating SETVI [1, 21]: 90
phytotoxicity rating SETVI [1, 22]: 95
phytotoxicity rating ECHCG [2, 21]: 30
phytotoxicity rating ECHCG [2, 22]: 50
phytotoxicity rating CASOB [3, 21]: 100
phytotoxicity rating CASOB [3, 22]: 100
phytotoxicity rating IPOHE [4, 21]: 100
phytotoxicity rating IPOHE [4, 22]: 80
phytotoxicity rating ABUTH [5, 21]: 100
phytotoxicity rating ABUTH [5, 22]: 100
phytotoxicity rating AMARE [6, 21]: 100
phytotoxicity rating AMARE [6, 22]: 100
phytotoxicity rating SORHA [7, 21]: 30
phytotoxicity rating SORHA [7, 22]: 60
phytotoxicity rating DIGSA [8, 21]: 40
phytotoxicity rating DIGSA [8, 22]: 60
phytotoxicity rating CHEAL [9, 21]: 100
phytotoxicity rating CHEAL [9, 22]: 100
Pre-emerge Herbicidal Activity, phytotoxicity rating (0-100), SETVI ([10]; 63 g ai/ha): 80
Pre-emerge Herbicidal Activity, phytotoxicity rating (0-100), SETVI ([10]; 250 g ai/ha): 100
Pre-emerge Herbicidal Activity, phytotoxicity rating (0-100), ECHCG ([11]; 63 g ai/ha): 20
Pre-emerge Herbicidal Activity, phytotoxicity rating (0-100), ECHCG ([11]; 250 g ai/ha): 80
Pre-emerge Herbicidal Activity, phytotoxicity rating (0-100), CASOB ([12]; 63 g ai/ha): 30
Pre-emerge Herbicidal Activity, phytotoxicity rating (0-100), CASOB ([12]; 250 g ai/ha): 50
Pre-emerge Herbicidal Activity, phytotoxicity rating (0-100), IPOHE ([13]; 63 g ai/ha): 30
Pre-emerge Herbicidal Activity, phytotoxicity rating (0-100), IPOHE ([13]; 250 g ai/ha): 90
Pre-emerge Herbicidal Activity, phytotoxicity rating (0-100), ABUTH ([14]; 63 g ai/ha): 100
Pre-emerge Herbicidal Activity, phytotoxicity rating (0-100), ABUTH ([14]; 250 g ai/ha): 100
Pre-emerge Herbicidal Activity, phytotoxicity rating (0-100), SORHA ([15]; 63 g ai/ha): 30
Pre-emerge Herbicidal Activity, phytotoxicity rating (0-100), SORHA ([15]; 250 g ai/ha): 60
Pre-emerge Herbicidal Activity, phytotoxicity rating (0-100), DIGSA ([16]; 63 g ai/ha): 100
Pre-emerge Herbicidal Activity, phytotoxicity rating (0-100), DIGSA ([16]; 250 g ai/ha): 100
Pre-emerge Herbicidal Activity, phytotoxicity rating (0-100), AMBEL ([17]; 63 g ai/ha): 30
Pre-emerge Herbicidal Activity, phytotoxicity rating (0-100), AMBEL ([17]; 250 g ai/ha): 90
Pre-emerge Herbicidal Activity, phytotoxicity rating (0-100), CHEAL ([18]; 63 g ai/ha): 100
Pre-emerge Herbicidal Activity, phytotoxicity rating (0-100), CHEAL ([18]; 250 g ai/ha): 100
Pre-emerge Herbicidal Activity, phytotoxicity rating (0-100), AMARE ([19]; 63 g ai/ha): 100
Pre-emerge Herbicidal Activity, phytotoxicity rating (0-100), AMARE ([19]; 250 g ai/ha): 100
